# Results published in article PMC4030628 (Cancer research, 2013).
# Target: STAT3 (Homo sapiens, UniProt P40763)
# Assay: fluorescence polarization competition with 5-FAM-GpYLPQTV phosphopeptide
# Assay type: binding
# Chain of STAT3 (P40763 2-770): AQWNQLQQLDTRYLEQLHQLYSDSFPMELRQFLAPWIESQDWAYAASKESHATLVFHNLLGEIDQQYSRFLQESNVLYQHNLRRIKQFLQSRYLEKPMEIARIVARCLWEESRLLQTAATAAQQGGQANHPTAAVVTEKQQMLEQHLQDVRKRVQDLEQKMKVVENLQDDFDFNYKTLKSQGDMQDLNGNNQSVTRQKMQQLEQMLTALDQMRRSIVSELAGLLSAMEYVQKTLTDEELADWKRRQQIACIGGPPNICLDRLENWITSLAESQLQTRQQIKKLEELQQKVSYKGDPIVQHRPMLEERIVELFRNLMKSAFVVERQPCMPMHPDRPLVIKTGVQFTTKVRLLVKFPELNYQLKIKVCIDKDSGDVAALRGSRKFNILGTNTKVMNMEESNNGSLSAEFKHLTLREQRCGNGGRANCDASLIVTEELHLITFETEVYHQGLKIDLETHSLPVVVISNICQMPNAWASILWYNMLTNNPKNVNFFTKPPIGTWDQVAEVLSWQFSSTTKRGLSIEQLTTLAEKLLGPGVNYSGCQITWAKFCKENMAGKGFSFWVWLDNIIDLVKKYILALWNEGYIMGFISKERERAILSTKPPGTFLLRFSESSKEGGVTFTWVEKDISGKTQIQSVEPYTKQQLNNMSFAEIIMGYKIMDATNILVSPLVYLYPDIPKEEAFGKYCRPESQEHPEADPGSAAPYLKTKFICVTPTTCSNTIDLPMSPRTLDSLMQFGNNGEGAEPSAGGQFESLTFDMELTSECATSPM
substance,measurement,value
S3I-1757,IC50,13.5 ± 0.5 µM
